This is an account of results in publication PMC10882993, “Protecting the Achilles heel: three FolE_I-type GTP-cyclohydrolases needed for full growth of metal-resistant Cupriavidus metallidurans under a variety of conditions” (Journal of Bacteriology, 2024).

Values after ≈ are worked out from the molar mass of the structure shown. Where two headings read alike, the source gives them in different places.

What all share (experiment): microbe, parasite or virus in culture
The test system of test [1] is T1, Cupriavidus metallidurans AE104.
T1 construct: AE104
Details: growth inhibition of bacterial culture, final turbidity in TMM medium. The conditions noted are these: read-out: TMP,. How it is done: Trimethoprim and sulfonamide interfere with THF biosynthesis in steps downstream of the reaction catalyzed by the FolE_I-type enzymes. Neither substance induced an up-regulation of folE_IB1 or folE_IA (Table S2), but TMP did induce expression of pfl-glyA (Table S1). The ∆folE_IB1 mutant of strain AE104 was less resistant to trimethoprim than its wild-type parent or the other two ∆folE deletion mutants (Fig. 7A), and the IC50 for trimethoprim decreased from 4 to 3.3 mg/L (Table S9). Resistance to trimethoprim was not affected in the ∆folE_IB2 ∆folE_IA mutant with FolE_IB1 only, but it was in the two double mutants that carried a ∆folE_IB1 deletion (Fig. 7). Resistance to TMP decreased in the ∆zupT ∆folE_IB1 but not in the ∆zur ∆folE_IB1 mutant (Fig. 7B and C). […] Since TMP decreased the concentration of fTHF as shown by the up-regulation of pfl-glyA-lacZ expression, an increased folate production was needed to counteract inhibition of a later step of folate biosynthesis by TMP. This explains the need for the activity of both FolE_IA and FolE_IB1 to resist TMP inhibition. […] Final turbidity of C. metallidurans strains in medium zinc TMM containing varying concentrations of trimethoprim is shown for derivatives of strain AE104 single (panel A) and double (panel B) mutants, ∆zupT (panel C), and ∆zur single mutants (panel D). […]

Test [2] shares this test system. Details: growth inhibition of bacterial culture by metal chelators. An excerpt: EDTA, membrane-permeant TPEN, and DIP complex divalent transition metal cations with similar stability constants, EDTA with Cu > Ni > Zn > Co > Fe = Mn, TPEN with a similar ranking but higher stability constants, and DIP with Cu = Fe > Zn in an inverted arrangement ([43][–][45]). The ∆folE single and double mutants grew with only a slight delay compared to the parental strain AE104 in the presence of TPEN (Fig. S8), and the IC50 values for the ∆folE single mutants and TPEN were not different from that of the parent AE104 (Table S8). When the gene for the zinc importer ZupT was deleted, the IC50 values of all strains decreased below 0.5 µM TPEN, again without differences between the mutants and the ∆zupT parent (Fig. S8C). […] Due to large deviations, not much influence of TPEN on the growth of the ∆folE mutants could be measured. […] In contrast, TPEN mediated an overall decrease of metal availability. In the presence of DIP, growth of both ∆folE_IB mutants of strain AE104 was similar to their parent, but the ∆folE_IA mutant was more sensitive to DIP (Fig. S9A) with a decrease in the IC50 value from about 60 µM to 36 ± 7 µM (Table S8). The zinc content of the four strains in the presence of 25 µM DIP was similar, but the cobalt content was decreased (Table S6). […]

Test [3] has the same test system. Further details: growth inhibition of bacterial culture by oxidative stress agents. The conditions noted are these: read-out: PQ.

For the compound `COc1cc(Cc2cnc(N)nc2N)cc(OC)c1OC` [TMP, trimethoprim], the IC50 in test [1] was 4 ± 0.2 µg/mL (≈ 13.8 µM).
`c1ccc(CN(CCN(Cc2ccccn2)Cc2ccccn2)Cc2ccccn2)nc1` [TPEN, N,N,N′,N′-tetrakis(2-pyridinylmethyl)-1,2-ethanediamine]: in test [2] (read-out: TPEN), the IC50 came to 1.1 ± 0.4 µM.
For `C[n+]1ccc(-c2cc[n+](C)cc2)cc1` [PQ, paraquat], in test [3], the IC50 is 181 ± 17 µM.
`c1ccc(-c2ccccn2)nc1` [DIP, dipyridyl]: the IC50 in test [2] (read-out: DIP) is 57 ± 4 µM.
